Measured values: the OPERA property sets (Mansouri et al. 2018)

logP | Compound
0.99 | CCC1OC(=O)CC(O)C(C)C(OC2OC(C)C(O)C(N(C)C)C2O)C(CC=O)CC(C)C(=O)C=CC(C)=CC1CO (stereo not given)
3.8 | CC[C@H]1OC(=O)C[C@@H](O)[C@H](C)[C@@H](O[C@@H]2O[C@H](C)[C@@H](O)[C@H](N(C)C)[C@H]2O)[C@@H](CCN2C[C@H](C)C[C@H](C)C2)C[C@@H](C)C(=O)C=CC(C)=C[C@@H]1CO[C@@H]1O[C@H](C)[C@@H](O)[C@@H](OC)[C@H]1OC
4.02 | CC[C@H]1OC(=O)[C@H](C)[C@@H](O[C@H]2C[C@@](C)(OC)[C@@H](O)[C@H](C)O2)[C@H](C)[C@@H](O[C@@H]2O[C@H](C)C[C@H](N(C)C)[C@H]2O)[C@](C)(O)C[C@@H](C)CN(C)[C@H](C)[C@@H](O)[C@]1(C)O
1.69 | CO[C@H]1C[C@H](O[C@H]2[C@H](C)[C@@H](O[C@@H]3O[C@H](C)C[C@H](N(C)C)[C@H]3O)[C@@H](C)C[C@]3(CO3)C(=O)[C@H](C)[C@@H](O)[C@@H](C)[C@@H](C)OC(=O)[C@@H]2C)O[C@@H](C)[C@@H]1O
1.63 | CC[C@H]1OC(=O)C[C@@H](O)[C@H](C)[C@@H](O[C@@H]2O[C@H](C)[C@@H](O[C@H]3C[C@@](C)(O)[C@@H](O)[C@H](C)O3)[C@H](N(C)C)[C@H]2O)[C@@H](CC=O)C[C@@H](C)C(=O)C=CC(C)=CC1CO[C@@H]1O[C@H](C)[C@@H](O)[C@@H](OC)[C@H]1OC (stereo not given in full)
0.3 | COC1C(OC(C)=O)CC(=O)OC(C)CC2OC2C=CC(=O)C(C)CC(CC=O)C1OC1OC(C)C(O)C(N(C)C)C1O (stereo not given)
2.19 | CCC1OC(=O)C[C@@H](O)[C@H](C)[C@@H](O[C@@H]2O[C@H](C)C[C@H](N(C)C)[C@H]2O)[C@@H](CC=O)C[C@@H](C)C(=O)C=C[C@]2(C)OC2C1C (stereo not given in full)
3.06 | CC[C@H]1OC(=O)[C@H](C)[C@@H](O[C@H]2C[C@@](C)(OC)[C@@H](O)[C@H](C)O2)[C@H](C)[C@@H](O[C@@H]2O[C@H](C)C[C@H](N(C)C)[C@H]2O)[C@](C)(O)C[C@@H](C)C(=O)[C@H](C)[C@@H](O)[C@]1(C)O
2.92 | CCC1OC(=O)C(C)C(OC2CC(C)(OC)C(O)C(C)O2)C(C)C(OC2OC(C)CC(N(C)C)C2O)C(C)(O)CC(C)C(N)C(C)C2OC(=O)OC12C (stereo not given)
3.04 | CO[C@@H]1[C@@H](O[C@@H]2O[C@H](C)[C@@H](O[C@H]3C[C@@](C)(O)[C@@H](OC(=O)CC(C)C)[C@H](C)O3)[C@H](N(C)C)[C@H]2O)[C@@H](CC=O)C[C@@H](C)C(=O)C=CC2OC2C[C@@H](C)OC(=O)C[C@H]1OC(C)=O (stereo not given in full)
